Target: vchNADK (Vibrio cholerae, UniProt Q9KTP8, K2E/N76T)

NC(=O)c1ccc[n+]([C@@H]2O[C@H](COP(=O)(O)OP(=O)(O)OC[C@H]3O[C@@H](n4cnc5c(N)ncnc54)[C@H](OP(=O)(O)O)[C@@H]3O)[C@@H](O)[C@H]2O)c1 [NADP^+]
% residual activity at 0.20 mM: 39%
